Source: US20250154105A1, “POLYCYCLIC COMPOUND AND USE THEREOF” (TYK MEDICINES, INC., priority 2021, published 2025)

How the values were obtained:
[1] = test system: human pleural mesothelioma cells NCI-H226; experiment: Cell anti-proliferation experiment (CCK8), NCI-H226; assay type: cell-based
Description: TEST EXAMPLE 1 CELL ANTI-PROLIFERATION EXPERIMENT
Determination of proliferation inhibition of YAP-TEAD inhibitor compounds on human pleural mesothelioma cells NCI-H226
Experimental materials and equipments: Human pleural mesothelioma cells NCI-H226 was purchased from NANJING COBIOER BIOSCIENCES CO., LTD. RPMI-1640 medium (Bio-Channel), DMSO (dimethyl sulfoxide), CCK8 (WST-8) Cell Assay Kit (Beyotime), 0.25% EDTA-Tripsin (trypsin digest), 1×PBS (phosphate buffer, PH7.2), 96-well plate (Corning), fetal bovine serum (FBS), 10,000 U/mL penicillin-G/streptomycin, high-speed freezing centrifuge (EPPENDORF 5810R), enzyme-linked immunosorbent assay (Tecan Spark).
1. Cell plating • A) Tumor cells were cultured to 80-90% density in RPMI-1640 (containing 10% FBS and 100 U/mL penicillin-G/streptomycin) under the condition of 37° C., 5% CO2 and saturated humidity. • B) The culture medium was removed from the 10 cm culture dish. • C) Cells were washed with 10 ml 1×PBS. • D) 4 ml of 0.25% EDTA-Tripsin was added to digest pancreatin for 5 minutes in an incubator at 37° C. and 5% CO2. Then the mixture was transferred to a 15 ml centrifuge tube, and centrifuged for 5 minutes at 200 g. The supernatant was discarded to obtain cell precipitation. • E) The cell precipitation was resuspended with 4 ml of […], counted and adjusted to 10,000 cells/ml. • F) The cell suspension was added to a 96-well plate with a volume of 100 μL per well and cultured overnight in an incubator at 37° C. and 5% CO2.
• Compound dilution • A) Preparation of gradient dilution solutions of the tested compounds: the tested compounds was configured to 1 mM stock solution. Then […] of stock solution was dissolved in 1.5 ml of DMSO-free culture solution, and then 3-fold continuous gradient dilution with 0.1% DMSO culture solution was performed to get a total of 9 concentrations. The diluted concentrations of the compound were as follows: 333.33 nM, 111.11 nM, 37.03 nM, 12.35 nM, 4.15 nM, 1.37 nM, 0.46 nM, 0.15 nM • B) After full mixing, 100 μL of culture compound solution was taken to replace the culture solution in the cell culture plate, with 4 duplicated wells at each concentration; • C) The cells were transferred to the incubator to incubate for 3 days.
• A) the cell culture plate was taken out and added with 10 μl of CCK-8 (WST-8) solution per well in the biosafety cabinet; • B) The cell culture plate was put back into the incubator and continued to incubate for 3 hours; • C) 450 nm wavelength was selected to measure absorbance value on TECAN enzyme linked immunosorbent assay detector.
The following formula was used to calculate the cell viability (% Cell Viability); • Cell Viability (%)=[A(Drug-added)-A(Blank)]/[A(0 Drug-added)-A(blank)][…] • A (Drug-added): The absorbance of wells containing cells, CCK8 solution, and drug solution. • A (Blank): The absorbance of wells containing culture medium and CCK8 solution, but without cells. • A (0 Drug-added): The absorbance of wells containing cells, CCK8 solution, but without drug solution. • Cell viability: Cell proliferation viability or cytotoxicity viability was determined by the IC50 value obtained by curve fitting using GraphPad Prism 8 software.

YAP-TEAD = YAP-TEAD inhibitor activity by Nano luciferase method (8xGTiiC-nLuc reporter in 293T cells); assay type: cell-based; details: Homo sapiens, HEK-293T, 48 hours incubation, read-out: Nano-luciferase detection (IC50)
Description: EXAMPLE 2: YAP-TEAD INHIBITOR ACTIVITY WAS DETECTED BY NANO LUCIFERASE METHOD
(1) Experimental materials and equipments: 293T cells were purchased from NANJING COBIOER BIOSCIENCES CO., LTD. DMEM medium (High sugar, no phenol red, Bio-Channel), DMSO (dimethyl sulfoxide), Lipo6000™ transfection reagent (Beyotime), pGL3B-8xGTiiC-nLuc-CMV-fLuc plasmid, 0.25% EDTA-Tripsin (trypsin digest), 1×PBS (phosphate buffer, PH7.2), 96-well white cell culture plate (PerkinElmer), fetal bovine serum (FBS), 10,000 U/mL penicillin-G/streptomycin, high-speed freezing centrifuge (EPPENDORF 5810R), 37° C. CO2 incubator, Vi-cell® Cell Counter, Envision Microplate Reader (PerkinElmer).
The revived 293T cells were inoculated into a 10 cm culture dish and placed in an incubator with 5% CO2, and cultured at constant temperature of 37° C. To ensure transfection efficiency, cells at logarithmic phase (cell density of approximately 50%-70%) should be used.
On the day before transfection, cells at the logarithmic phase were digested with Trypsin-EDTA, and culture medium was added to terminate digestion. The cell suspension was prepared by blowing and mixing using a pipette.
Cell concentration was measured using Vi-cell, and the cell suspension was diluted to a suspension of 5*10^^5 cells per milliliter. After preparing the cell suspension, the suspension was gently mixed. 10 ml of liquid was added to a 10 cm culture dish. In this way, the number of cells in each 10 cm culture dish was 5*10^^6. The cells were incubated at a constant temperature of 37° C. for 1 day in an incubator with 5% CO2.
Two clean and sterile centrifuge tubes were taken and added with 750 μL opti-MEM Medium without antibiotics and serum, respectively. Then one tube was added with 15 μg Plasmid (pGL3B-8xGTiiC-nLuc-CMV-fLuc), and gently blew and mixed well using a pipette; the other tube was added with Lipo6000 transfection reagent, and gently blew and mixed using a pipette. After standing at room temperature for 5 minutes, the culture solution containing DNA was added gently to the culture solution containing Lipo6000 transfection reagent, and mixed well by gently inverting the centrifuge tube, then standing at room temperature for 5 minutes.
The above mixture was added evenly to a 10 cm culture dish and replaced with fresh complete culture medium after 6 hours of cultivation.
After transfection for 1 day, cells were digested with Trypsin EDTA, and culture medium was added to terminate the digestion. The cell suspension was prepared by blowing and mixing using a pipette.
Cell concentration was measured using Vi-cell, and the cell suspension was diluted to a suspension of 20000 cells per milliliter.
After preparing the cell suspension, the suspension was gently mixed, and added to 96-well plate with 100 μL per well. Thus, the density of the cells to be tested is 2000 cells per well.
The inoculated cell culture plate was placed in the incubator for cultivation, and after about 24 hour, compounds with concentration gradient were added.
10 mM compound stock solution was diluted with culture medium to 50 μM. Compound solution of 50 μM was added to the third column of the deep well plate, 216 μL of culture medium containing 0.5% DMSO was added to the fourth to eleventh columns, successively.
Gradient dilution: taking 100 μL of solution from the third column and adding the solution to the fourth column and mixing well; then taking 100 µL of solution from the fourth column again and adding the solution to the fifth column, repeating this operation until the eleventh column.
Taking 25 μL of compound solution from the deep well plate and adding it to a 96-well culture plate using a multi-channel pipette. Repeating four times on the 96 well plate for each compound. Finally, a concentration gradient of 1:3.16 was formed in the 96-well plate with a maximum concentration of 10,000 nM. The • (5) Addition of Nano Luciferase Detection Reagent and Read […]

IC50 [1] | IC50 (YAP-TEAD) | SMILES
≤ 1 µM | ≤ 1 µM | COCC(C)NC(=O)c1ccc2c(c1)c1nn(C)cc1c(=O)n2-c1ccc(C(F)(F)F)cc1 (stereo not drawn) [Example T-107]
1 to 5 µM | 1 to 5 µM | Cn1cc2c(=O)n(-c3ccc(C(F)(F)F)cc3)c3ccc(C(=O)O)cc3c2n1 [Example T-110]
≤ 1 µM | ≤ 1 µM | CNC(=O)c1ccc2c(c1)c1nn(C)cc1c(=O)n2-c1ccc(C(F)(F)F)cc1 [Example T-111]
≤ 1 µM | ≤ 1 µM | Cn1cc2c(=O)n(-c3ccc(C(F)(F)F)cc3)c3ccc(C(=O)NCc4ccccn4)cc3c2n1 [Example T-113]
≤ 1 µM | 1 to 5 µM | Cn1cc2c(=O)n(-c3ccc(C(F)(F)F)cc3)c3ccc(C(N)=O)cc3c2n1 [Example T-114]
1 to 5 µM | 1 to 5 µM | CN(C)Cc1cccc(NC(=O)c2ccc3c(c2)c2nn(C)cc2c(=O)n3-c2ccc(C(F)(F)F)cc2)c1 [Example T-115]
1 to 5 µM | 1 to 5 µM | CN(C)CCCNC(=O)c1ccc2c(c1)c1nn(C)cc1c(=O)n2-c1ccc(C(F)(F)F)cc1 [Example T-118]
1 to 5 µM | 1 to 5 µM | CNC[C@H](C)NC(=O)c1ccc2c(c1)c1nn(C)cc1c(=O)n2-c1ccc(C(F)(F)F)cc1 [Example T-120]
1 to 5 µM | 1 to 5 µM | Cn1cc2c(=O)n(-c3ccc(C(F)(F)F)cc3)c3ccc(C(=O)Nc4c[nH]cn4)cc3c2n1 [Example T-121]
1 to 5 µM | 1 to 5 µM | C[C@H](NC(=O)c1ccc2c(c1)c1nn(C)cc1c(=O)n2-c1ccc(C(F)(F)F)cc1)c1ccc(C(F)(F)F)cn1 [Example T-123]
1 to 5 µM | 1 to 5 µM | Cc1ccc([C@H](C)NC(=O)c2ccc3c(c2)c2nn(C)cc2c(=O)n3-c2ccc(C(F)(F)F)cc2)nc1 [Example T-124]
1 to 5 µM | 1 to 5 µM | C[C@@H](NC(=O)c1ccc2c(c1)c1nn(C)cc1c(=O)n2-c1ccc(C(F)(F)F)cc1)c1ncccc1F [Example T-125]
≤ 1 µM | ≤ 1 µM | C[C@H](NC(=O)c1ccc2c(c1)c1nn(C)cc1c(=O)n2-c1ccc(C(F)(F)F)cc1)c1ncccc1F [Example T-126]
1 to 5 µM | 1 to 5 µM | C[C@@H](NC(=O)c1ccc2c(c1)c1nn(C)cc1c(=O)n2-c1ccc(C(F)(F)F)cc1)c1ccc(F)cn1 [Example T-127]
≤ 1 µM | ≤ 1 µM | C[C@H](NC(=O)c1ccc2c(c1)c1nn(C)cc1c(=O)n2-c1ccc(C(F)(F)F)cc1)c1cc(Cl)ccn1 [Example T-128]
1 to 5 µM | 1 to 5 µM | C[C@H](NC(=O)c1ccc2c(c1)c1nn(C)cc1c(=O)n2-c1ccc(C(F)(F)F)cc1)c1ccc(Cl)cn1 [Example T-130]
1 to 5 µM | 1 to 5 µM | C[C@H](NC(=O)c1ccc2c(c1)c1nn(C)cc1c(=O)n2-c1ccc(C(F)(F)F)cc1)c1cccc(Cl)n1 [Example T-132]
1 to 5 µM | 1 to 5 µM | Cn1cc2c(=O)n(-c3ccc(C(F)(F)F)cc3)c3ccc(C(=O)NCc4ccncn4)cc3c2n1 [Example T-133]
≤ 1 µM | ≤ 1 µM | COc1cccc([C@H](C)NC(=O)c2ccc3c(c2)c2nn(C)cc2c(=O)n3-c2ccc(C(F)(F)F)cc2)n1 [Example T-134]
1 to 5 µM | 1 to 5 µM | COc1cccnc1[C@@H](C)NC(=O)c1ccc2c(c1)c1nn(C)cc1c(=O)n2-c1ccc(C(F)(F)F)cc1 [Example T-135]
1 to 5 µM | 1 to 5 µM | COc1ccnc([C@@H](C)NC(=O)c2ccc3c(c2)c2nn(C)cc2c(=O)n3-c2ccc(C(F)(F)F)cc2)c1 [Example T-136]
≤ 1 µM | ≤ 1 µM | C[C@H](NC(=O)c1ccc2c(c1)c1nn(C)cc1c(=O)n2-c1ccc(C(F)(F)F)cc1)c1ccccc1 [Example T-138]
1 to 5 µM | 1 to 5 µM | Cn1cc2c(=O)n(-c3ccc(C(F)(F)F)cc3)c3ccc(C(=O)NCc4ncccn4)cc3c2n1 [Example T-139]
1 to 5 µM | 1 to 5 µM | Cn1cc2c(=O)n(-c3ccc(C(F)(F)F)cc3)c3ccc(C(=O)NCc4cnccn4)cc3c2n1 [Example T-140]
1 to 5 µM | 1 to 5 µM | Cn1cc2c(=O)n(-c3ccc(C(F)(F)F)cc3)c3ccc(C(=O)N[C@@H](c4ccccc4)c4ccccn4)cc3c2n1 [Example T-142]
1 to 5 µM | 1 to 5 µM | COc1ccnc([C@H](C)NC(=O)c2ccc3c(c2)c2nn(C)cc2c(=O)n3-c2ccc(C(F)(F)F)cc2)c1 [Example T-143]
1 to 5 µM | 1 to 5 µM | C[C@H](NC(=O)c1ccc2c(c1)c1nn(C)cc1c(=O)n2-c1ccc(C(F)(F)F)cc1)c1ccc(F)cn1 [Example T-144]
≤ 1 µM | ≤ 1 µM | Cc1cccnc1[C@H](C)NC(=O)c1ccc2c(c1)c1nn(C)cc1c(=O)n2-c1ccc(C(F)(F)F)cc1 [Example T-145]
1 to 5 µM | 1 to 5 µM | C[C@H](NC(=O)c1ccc2c(c1)c1nn(C)cc1c(=O)n2-c1ccc(C(F)(F)F)cc1)c1cccnc1 [Example T-146]
≤ 1 µM | ≤ 1 µM | C[C@H](NC(=O)c1ccc2c(c1)c1nn(C)cc1c(=O)n2-c1ccc(C(F)(F)F)cc1)c1cccc(N)n1 [Example T-148]
